Reference: article PMC8342319, “Predicting blood-to-plasma concentration ratios of drugs from chemical structures and volumes of distribution in humans” (Molecular Diversity, 2021)
Where two headings read alike, the source gives them in different places.

Legend:
plasma protein = details: cited from earlier work; for fp_Human (free fraction in plasma): human, collected value, median if multiple values were reported, ref: Table S1
[1] = human, intravenous, cited from earlier work
[2] = cited from earlier work
[3] = human
[4] = median if multiple values were reported, ref numbers in Table S1
[5] = human, intravenous, median if multiple values were reported, ref numbers in Table S1

SMILES | in vivo Vd_(L/kg)_Human [1, 4] | in vivo CL_(L/hr/kg)_Human [2, 5] | further results
CC(=O)Nc1ccc(O)cc1 [Acetaminophen] | 1.000 L/kg |  | fp_Human (free fraction in plasma) (plasma protein): 0.710
Oc1ncnc2[nH]ncc12 [Allopurinol] | 0.580 L/kg |  | 
Cc1nnc2n1-c1ccc(Cl)cc1C(c1ccccc1)=NC2 [Alprazolam] | 0.800 L/kg | 0.044 L/h/kg | 
C=CCc1ccccc1OCC(O)CNC(C)C (stereo not shown) [Alprenolol] | 3.200 L/kg | 0.900 L/h/kg | 
CCCCc1oc2ccccc2c1C(=O)c1cc(I)c(OCCN(CC)CC)c(I)c1 [Amiodarone] |  | 0.114 L/h/kg | 
CN(C)CCC=C1c2ccccc2CCc2ccccc21 [Amitriptyline] | 8.700 L/kg | 0.593 L/h/kg | 
CC1(C)S[C@@H]2[C@H](NC(=O)[C@H](N)c3ccc(O)cc3)C(=O)N2[C@H]1C(=O)O [Amoxicillin] | 0.250 L/kg | 0.198 L/h/kg | 
C[C@@H](O[C@H]1OCCN(Cc2n[nH]c(=O)[nH]2)[C@H]1c1ccc(F)cc1)c1cc(C(F)(F)F)cc(C(F)(F)F)c1 [Aprepitant] | 0.940 L/kg |  | 
CC(C)NCC(O)COc1ccc(CC(N)=O)cc1 (stereo not shown) [Atenolol] |  | 0.150 L/h/kg | 
C[C@H]1C[C@H]2[C@@H]3CCC4=CC(=O)C=C[C@]4(C)[C@@]3(F)[C@@H](O)C[C@]2(C)[C@@]1(O)C(=O)CO [Betamethasone] |  | 0.168 L/h/kg | 
OC(CCN1CCCCC1)(c1ccccc1)C1CC2C=CC1C2 (stereo not shown) [Biperiden] | 9.100 L/kg |  | in vivo MRT_(hr)_Human [3]: 12.639 h
CC(C)NCC(O)COc1ccc(COCCOC(C)C)cc1 (stereo not shown) [Bisoprolol] | 2.400 L/kg | 0.222 L/h/kg | fp_Human (free fraction in plasma) (plasma protein): 0.830
CCCC1O[C@@H]2C[C@H]3[C@@H]4CCC5=CC(=O)C=C[C@]5(C)[C@H]4[C@@H](O)C[C@]3(C)[C@]2(C(=O)CO)O1 (stereo partly shown) [Budesonide] | 3.900 L/kg | 1.200 L/h/kg | 
COc1ccccc1OCCNCC(O)COc1cccc2[nH]c3ccccc3c12 (stereo not shown) [Carvedilol] | 1.300 L/kg | 0.495 L/h/kg | 
C=CC1=C(C(=O)O)N2C(=O)[C@@H](NC(=O)/C(=N\OCC(=O)O)c3csc(N)n3)[C@H]2SC1 [Cefixime] | 0.240 L/kg | 0.060 L/h/kg | 
CCC[C@@H]1C[C@@H](C(=O)N[C@@H]([C@H]2O[C@H](SC)[C@H](O)[C@@H](O)[C@H]2O)[C@H](C)Cl)N(C)C1 [Clindamycin] |  | 0.270 L/h/kg | 
CN1CCN(C2=Nc3cc(Cl)ccc3Nc3ccccc32)CC1 [Clozapine] | 1.600 L/kg |  | in vivo MRT_(hr)_Human [3]: 10.667 h
CNCCCN1c2ccccc2CCc2ccccc21 [Desipramine] | 15.000 L/kg |  | in vivo MRT_(hr)_Human [3]: 22.727 h
C[C@@H]1C[C@H]2[C@@H]3CCC4=CC(=O)C=C[C@]4(C)[C@@]3(F)[C@@H](O)C[C@]2(C)[C@@]1(O)C(=O)CO [Dexamethasone] |  | 0.198 L/h/kg | 
CN1C(=O)CN=C(c2ccccc2)c2cc(Cl)ccc21 [Diazepam] |  | 0.023 L/h/kg | 
COc1cc2nc(N3CCN(C(=O)C4COc5ccccc5O4)CC3)nc(N)c2cc1OC (stereo not shown) [Doxazosin] | 1.300 L/kg |  | in vivo MRT_(hr)_Human [3]: 13.542 h
CCN(CC)C(=O)/C(C#N)=C/c1cc(O)c(O)c([N+](=O)[O-])c1 [Entacapone] | 0.270 L/kg | 0.720 L/h/kg | 
CC[C@H]1OC(=O)[C@H](C)[C@@H](O[C@H]2C[C@@](C)(OC)[C@@H](O)[C@H](C)O2)[C@H](C)[C@@H](O[C@@H]2O[C@H](C)C[C@H](N(C)C)[C@H]2O)[C@](C)(O)C[C@@H](C)C(=O)[C@H](C)[C@@H](O)[C@]1(C)O [Erythromycin] |  |  | fp_Human (free fraction in plasma) (plasma protein): 0.220
CC(C)(C)NC(=O)[C@H]1CC[C@H]2[C@@H]3CC[C@H]4NC(=O)C=C[C@]4(C)[C@H]3CC[C@]12C [Finasteride] | 1.100 L/kg |  | in vivo MRT_(hr)_Human [3]: 7.639 h
O=C(NCC1CCCCN1)c1cc(OCC(F)(F)F)ccc1OCC(F)(F)F (stereo not shown) [Flecainide] | 6.100 L/kg |  | in vivo MRT_(hr)_Human [3]: 20.748 h
CCOC(=O)c1ncn2c1CN(C)C(=O)c1cc(F)ccc1-2 [Flumazenil] |  | 0.960 L/h/kg | 

SMILES | in vivo Vd_(L/kg)_Human [1, 4] | in vivo CL_(L/hr/kg)_Human [2, 5] | further results
O=c1[nH]cc(F)c(=O)[nH]1 [Fluorouracil] |  |  | fp_Human (free fraction in plasma) (plasma protein): 0.770
CC(C)n1c(/C=C/C(O)CC(O)CC(=O)O)c(-c2ccc(F)cc2)c2ccccc21 (stereo not shown) [Fluvastatin] | 0.420 L/kg |  | in vivo MRT_(hr)_Human [3]: 0.438 h
O=C(O)P(=O)(O)O [Foscarnet] | 0.500 L/kg | 0.126 L/h/kg | 
NS(=O)(=O)c1cc(C(=O)O)c(NCc2ccco2)cc1Cl [Furosemide] |  | 0.096 L/h/kg | 
O=C(/C=C/c1c(C(=O)O)[nH]c2cc(Cl)cc(Cl)c12)Nc1ccccc1 [Gavestinel] |  |  | fp_Human (plasma protein): 0.002
CCC1=C(C)CN(C(=O)NCCc2ccc(S(=O)(=O)NC(=O)N[C@H]3CC[C@H](C)CC3)cc2)C1=O [Glimepiride] | 0.190 L/kg | 0.034 L/h/kg | fp_Human (free fraction in plasma) (plasma protein): 0.028
CC#CCC(C)[C@H](O)/C=C/[C@@H]1[C@H]2C/C(=C/CCCC(=O)O)C[C@H]2C[C@H]1O (stereo partly shown) [Iloprost] | 0.385 L/kg | 0.960 L/h/kg | fp_Human (free fraction in plasma) (plasma protein): 0.400
CN(C)CCCN1c2ccccc2CCc2ccccc21 [Imipramine] | 12.000 L/kg |  | 
CCC(C)n1ncn(-c2ccc(N3CCN(c4ccc(OCC5COC(Cn6cncn6)(c6ccc(Cl)cc6Cl)O5)cc4)CC3)cc2)c1=O (stereo not shown) [Itraconazole] | 7.400 L/kg | 0.306 L/h/kg | 
CC(CCc1ccccc1)NCC(O)c1ccc(O)c(C(N)=O)c1 (stereo not shown) [Labetalol] |  | 1.380 L/h/kg | fp_Human (free fraction in plasma) (plasma protein): 0.500
Cc1c(OCC(F)(F)F)ccnc1C[S+]([O-])c1nc2ccccc2[nH]1 (stereo not shown) [Lansoprazole] | 0.280 L/kg | 0.319 L/h/kg | 
CCN(CC)CC(=O)Nc1c(C)cccc1C [Lidocaine] |  | 0.756 L/h/kg | 
CC[C@H](C)C(=O)O[C@H]1C[C@@H](C)C=C2C=C[C@H](C)[C@H](CC[C@@H]3C[C@@H](O)CC(=O)O3)[C@H]21 [Lovastatin] | 0.870 L/kg | 0.432 L/h/kg | 
CN(c1nc2ccccc2s1)C1CCN(C[C@H](O)COc2ccc(F)c(F)c2)CC1 [Lubeluzole] |  | 0.102 L/h/kg | fp_Human (free fraction in plasma) (plasma protein): 0.003
CN1CC[C@]23c4c5ccc(O)c4O[C@H]2[C@@H](O)C=C[C@H]3[C@H]1C5 [Morphine] |  | 1.500 L/h/kg | 
C=CCN1CC[C@]23c4c5ccc(O)c4O[C@H]2C(=O)CC[C@@]3(O)[C@H]1C5 [Naloxone] | 1.700 L/kg |  | 
COc1ccc2cc([C@H](C)C(=O)O)ccc2c1 [Naproxen] |  | 0.004 L/h/kg | 
Cc1ccnc2c1NC(=O)c1cccnc1N2C1CC1 [Nevirapine] | 1.300 L/kg | 0.018 L/h/kg | 
COCCOC(=O)C1=C(C)NC(C)=C(C(=O)OC(C)C)C1c1cccc([N+](=O)[O-])c1 (stereo not shown) [Nimodipine] | 1.000 L/kg |  | in vivo MRT_(hr)_Human [3]: 1.111 h
COc1ccc2[nH]c([S+]([O-])Cc3ncc(C)c(OC)c3C)nc2c1 (stereo not shown) [Omeprazole] | 0.240 L/kg | 0.504 L/h/kg | 
O=C1Nc2ccc(Cl)cc2C(c2ccccc2)=NC1O (stereo not shown) [Oxazepam] |  |  | in vivo CL_(L/hr/kg)_Human ([2]; in vivo, iv): 0.066 L/h/kg
COc1ccc2c3c1O[C@H]1C(=O)CC[C@@]4(O)[C@@H](C2)N(C)CC[C@]314 [Oxycodone] |  | 0.366 L/h/kg | fp_Human (free fraction in plasma) (plasma protein): 0.550
CCN1CCN(C(=O)N[C@@H](C(=O)N[C@@H]2C(=O)N3[C@@H]2SC(C)(C)[C@@H]3C(=O)O)c2ccccc2)C(=O)C1=O [Piperacillin] |  |  | in vivo MRT_(hr)_Human [3]: 1.125 h; in vivo Vd_(L/kg)_Human ([1]; median if multiple values reported, Reference of Table S1): 0.270 L/kg
CCN(CC)CCNC(=O)c1ccc(N)cc1 [Procainamide] |  |  | fp_Human (plasma protein): 0.840
Cc1nc2n(c(=O)c1CCN1CCC(c3noc4cc(F)ccc34)CC1)CCCC2 [Risperidone] |  |  | fp_Human (plasma protein; free fraction in human plasma, median if multiple values reported, Reference of Table S1): 0.100
Cc1cc(NS(=O)(=O)c2ccc(N)cc2)no1 [Sulfamethoxazole] |  |  | in vivo CL_(L/hr/kg)_Human ([2]; human, intravenous, median if multiple values reported, Reference of Table S1): 0.020 L/h/kg
